Data: patent US6967196B1, “Sulfonamide compounds and uses thereof” (Bristol-Myers Squibb Company, priority 1999, dated 2005)
Structures can show the parent of a compound that is named as a salt. Where two headings read alike, the source gives them in different places. Each block holds one molecule with its values, some of them ahead of it.

Tested on: amyloid β production in transfected H4 (human neuroglioma) cells stably expressing APP constructs
Test: In vitro cell-based assay of inhibitors of amyloid β production (ELISA)
In short: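 Sandwich ELISA read-out: Aβ in conditioned medium captured via C-terminal epitope mAb, detected with N-terminus-specific rabbit polyclonal, quantified from a standard curve. Compounds 10-100 μM, ~16 h exposure. Active = ≥50% inhibition vs control without significant cytotoxicity; dose-response follows.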

[1] = transfected H4 cells stably expressing APP constructs, approximately 16 hours incubation, amyloid β in medium by ELISA, read-out: ACTIVITY (IC50, inhibition of amyloid β production)
[2] = Homo sapiens, 16 h, transfected H4 cells expressing APP, approximately 16 hours incubation, amyloid β in medium by ELISA, read-out: ACTIVITY (IC50, inhibition of amyloid β production)
[3] = Homo sapiens, 16 h, transfected H4 cells stably expressing APP, approximately 16 hours incubation, amyloid β in medium by ELISA, read-out: ACTIVITY (IC50, inhibition of amyloid β production)
[4] = transfected H4 cells stably expressing APP, approximately 16 hours incubation, amyloid β in medium by ELISA, Table B, read-out: ACTIVITY (IC50, inhibition of amyloid β production)
[5] = transfected H4 cells stably expressing APP, approx. 16 h incubation, amyloid β in medium by ELISA, read-out: ACTIVITY (IC50, inhibition of amyloid β production)
[6] = transfected H4 cells stably expressing APP, approximately 16 hours incubation, amyloid β in medium by ELISA, read-out: ACTIVITY (IC50, inhibition of amyloid β production)
[7] = Table B, transfected H4 cells stably expressing APP, approximately 16 hours incubation, amyloid β in medium by ELISA, read-out: ACTIVITY (inhibitory concentration IC50, inhibition of amyloid β production)

Molecule: CCS(=O)(=O)CCC[C@@H](C)N(c1cc(Cl)ccc1F)S(=O)(=O)c1ccc(Cl)cc1 [Example 1163, 4-chloro-N-[5-chloro-2-fluorophenyl]-N-[1(R)-methyl-(4-ethylsulfonyl)butyl]benzenesulfonamide]
IC50 [1]: ≤ 25 nM

Molecule: O=C(c1ccc(OC(F)(F)F)cc1)N1CCCCC1CCOc1ccccc1CN(c1cc(F)ccc1F)S(=O)(=O)c1ccc(Cl)cc1 (stereo not shown) [Example 1033, 4-chloro-N-(2,5-difluorophenyl)-N-[2-(2-{1-[4-(trifluoromethoxy)benzoyl]-2-piperidinyl}ethoxy)benzyl]benzenesulfonamide]
IC50 [3]: > 500 nM

Molecule: O=C(c1ccc(I)cc1)N1CCCCC1CCOc1ccccc1CN(c1cc(F)ccc1F)S(=O)(=O)c1ccc(Cl)cc1 (stereo not shown) [Example 901, 4-chloro-N-(2,5-difluorophenyl)-N-(2-{2-[1-(4-iodobenzoyl)-2-piperidinyl]ethoxy}benzyl)benzenesulfonamide]
IC50 [3]: > 500 nM

Molecule: C[C@H](C(=O)NCCCN1CCOCC1)N(c1cc(Cl)ccc1F)S(=O)(=O)c1ccc(Cl)cc1 [Example 1322]
IC50 [2]: > 500 nM

Molecule: CC(C)[C@@H](NC(=O)CCC[C@@H](C)N(c1cc(Cl)ccc1F)S(=O)(=O)c1ccc(Cl)cc1)C(=O)O [Example 544, (R)-4-Chloro-N-(5-chloro-2-fluorophenyl)-N-[5-[N-(R)-[1-(carboxy)-2-methylpropyl]amino]-1-methyl-5-oxopentyl]benzenesulfonamide]
IC50 [5]: 100 to 500 nM

Molecule: C[C@H](c1ccc(F)cc1CCCC(=O)O)N(c1cc(F)ccc1F)S(=O)(=O)c1ccc(Cl)cc1 [Example 1073, 4-[2-((1R)-1-{[(4-chlorophenyl)sulfonyl]-2,5-difluoroanilino}ethyl)-5-fluorophenyl]butanoic acid]
IC50 [6]: > 500 nM

Molecule: CSc1ccccc1N(Cc1ccccc1OCCCN1CCCCC1)S(=O)(=O)c1ccc(Cl)cc1 [Example 238, 4-Chloro-N-[2-(methylsulfanyl)phenyl]-N-{2-[3-(1-piperidinyl)propoxy]benzyl}benzenesulfonamide Hydrochloride]
IC50 (read-out: ACTIVITY (inhibitory concentration IC50, inhibition of amyloid β production)): 25 to 50 nM

Molecule: 3-[2-((1R)-1-{[(4-chlorophenyl)sulfonyl]-2,5-difluoroanilino}ethyl)-5-fluorophenyl]-1-propanesulfonic acid [Example 881]
IC50 [6]: > 500 nM

Molecule: C[C@H](C(=O)NCCc1ccncc1)N(c1cc(Cl)ccc1F)S(=O)(=O)c1ccc(Cl)cc1 [Example 1304]
IC50 [2]: 100 to 500 nM

Molecule: COc1cccc(OC)c1CNC(=O)[C@@H](C)N(c1cc(Cl)ccc1F)S(=O)(=O)c1ccc(Cl)cc1 [Example 1364]
IC50 (transfected H4 cells expressing APP, approximately 16 hours incubation, amyloid β in medium by ELISA, read-out: ACTIVITY (IC50, inhibition of amyloid β production)): > 500 nM

Molecule: 2-((1R)-1-{[(4-chlorophenyl)sulfonyl]-2,5-difluoroanilino}ethyl)-5-fluorobenzyl sec-butylcarbamate [Example 795]
IC50 [5]: 100 to 500 nM

Molecule: (2E)-N-{4-[2-(1-{[(4-chlorophenyl)sulfonyl]-2,5-difluoroanilino}ethyl)phenoxy]butyl}-N-ethyl-2-butenamide [Example 514]
IC50 [4]: 100 to 500 nM

Molecule: CSC1CCN(CCC[C@@H](C)N(c2cc(Cl)ccc2Cl)S(=O)(=O)c2ccc(Cl)cc2)C1 (stereo partly shown) [Example 1148]
IC50 [1]: 100 to 500 nM

The remaining lines, values ahead:

IC50 [2]: 100 to 500 nM
Molecule: C[C@H](C(=O)NCc1ccccn1)N(c1cc(Cl)ccc1F)S(=O)(=O)c1ccc(Cl)cc1 [Example 1341]

IC50 [4]: 100 to 500 nM
Molecule: COC(=O)CCS(=O)(=O)CCc1cc(F)ccc1[C@@H](C)N(c1cc(F)ccc1F)S(=O)(=O)c1ccc(Cl)cc1 [Example 474, Methyl 3-({2-[2-((1R)-1-{[(4-chlorophenyl)sulfonyl]-2,5-difluoroanilino}ethyl)-5-fluorophenyl]ethyl}sulfonyl)propanoate]

IC50 (Homo sapiens, 16 h, transfected H4 cells stably expressing APP constructs, approximately 16 hours incubation, amyloid β in medium by ELISA, read-out: ACTIVITY (IC50, inhibition of amyloid β production)): > 10000 nM
Molecule: O=S(=O)(c1ccc(Cl)cc1)N(Cc1ccccc1OCc1ccccn1)c1ccccc1 [Example 1092, 4-chloro-N-phenyl-N-[2-(2-pyridinylmethoxy)benzyl]benzenesulfonamide hydrochloride]

IC50 [2]: > 500 nM
Molecule: C[C@@H](C(=O)NCc1ccccc1Sc1ccccc1CO)N(c1cc(Cl)ccc1F)S(=O)(=O)c1ccc(Cl)cc1 [Example 1363]

IC50 [4]: 100 to 500 nM
Molecule: C[C@H](c1ccc(F)cc1CCS(=O)(=O)CCC(=O)O)N(c1cc(F)ccc1F)S(=O)(=O)c1ccc(Cl)cc1 [Example 475, 3-({2-[2-((1R)-1-{[(4-chloro-phenyl)sulfonyl]-2,5-difluoroanilino}ethyl)-5-fluorophenyl]ethyl}sulfonyl)propanoic Acid]

IC50 (transfected H4 cells stably expressing APP, approximately 16 hours incubation, amyloid β in medium by ELISA, hydrochloride, read-out: ACTIVITY (IC50, inhibition of amyloid β production)): > 500 nM
Molecule: CCC[C@@H](C)N(Cc1ccccc1OCCCN1CCCCC1)S(=O)(=O)c1ccc(Cl)cc1 [Example 980, 4-chloro-N-[(1R)-1-methylbutyl]-N-{2-[3-(1-piperidinyl)propoxy]benzyl}benzenesulfonamide hydrochloride]

IC50 [3]: > 500 nM
Molecule: C[C@H](c1ccccc1CCCn1cncn1)N(c1cc(F)ccc1F)S(=O)(=O)c1ccc(Cl)cc1 [Example 1066, 4-chloro-N-(2,5-difluorophenyl)-N-((1R)-1-{2-[3-(1H-1,2,4-triazol-1-yl)propyl]phenyl}ethyl)benzenesulfonamide]

IC50 [2]: 100 to 500 nM
Molecule: C[C@H](C(=O)NC1CCCCC1)N(c1cc(Cl)ccc1F)S(=O)(=O)c1ccc(Cl)cc1 [Example 1308]

IC50 [7]: ≤ 25 nM
Molecule: C[C@H](CCSCC(=O)O)N(c1cc(Cl)ccc1Cl)S(=O)(=O)c1ccc(Cl)cc1 [Example 180, (6R)-6-[(2,5-dichlorophenyl)[(4-chlorophenyl)sulfonyl]amino]-3-thioheptanoic Acid]

IC50 [2]: > 500 nM
Molecule: CC(CCCC(C)(C)O)NC(=O)[C@@H](C)N(c1cc(Cl)ccc1F)S(=O)(=O)c1ccc(Cl)cc1 (stereo partly shown) [Example 1335]

IC50 [3]: > 500 nM
Molecule: C[C@H](c1ccccc1OCCCn1ccnc1)N(c1cc(F)ccc1F)S(=O)(=O)c1ccc(Cl)cc1 [Example 908, 4-chloro-N-(2,5-difluorophenyl)-N-((1R)-1-{2-[3-(1H-imidazol-1-yl)propoxy]phenyl}ethyl)benzenesulfonamide hydrochloride]

IC50 [7]: ≤ 25 nM
Molecule: COC(=O)CSCC[C@@H](C)N(c1cc(Cl)ccc1Cl)S(=O)(=O)c1ccc(Cl)cc1 [Example 179, Methyl(6R)-6-[(2,5,dichlorophenyl)[(4-chlorophenyl)sulfonyl]amino]-3-thioheptanoate]

IC50 [2]: 100 to 500 nM
Molecule: COCCCNC(=O)[C@@H](C)N(c1cc(Cl)ccc1F)S(=O)(=O)c1ccc(Cl)cc1 [Example 1346]

IC50 (Homo sapiens, 16 h, transfected H4 cells stably expressing APP, approximately 16 hours incubation, amyloid β in medium by ELISA, Table B, read-out: ACTIVITY (IC50, inhibition of amyloid β production)): 50 to 100 nM
Molecule: C[C@H](c1ccccc1CCOC(=O)NCc1ccccc1)N(c1cc(F)ccc1F)S(=O)(=O)c1ccc(Cl)cc1 [Example 389, 2-[2-((1R)-1-{[(4-chlorophenyl)sulfonyl]-2,5-difluoroanilino}ethyl)phenyl]ethyl benzylcarbamate]

IC50 [6]: > 500 nM
Molecule: O=S(=O)(c1ccc(Cl)cc1)N(CCc1cccc(OCCCN2CCCCC2)c1)c1ccccc1 [Example 956, 4-chloro-N-phenyl-N-(2-{3-[3-(1-piperidinyl)propoxy]phenyl}ethyl)benzeneslfonamide hydrochloride]

IC50 [4]: 100 to 500 nM
Molecule: COC(=O)[C@H](CS(=O)(=O)CCCc1cc(F)ccc1[C@@H](C)N(c1cc(F)ccc1F)S(=O)(=O)c1ccc(Cl)cc1)NC(=O)OC(C)(C)C [Example 486]

IC50 [5]: 100 to 500 nM
Molecule: 2,4-dichloro-N-{3-[2-(1-{[(4-chlorophenyl)sulfonyl]-2,5-difluoroanilino}ethyl)phenoxy]propyl}-5-fluorobenzamide [Example 682]

IC50 [2]: > 500 nM
Molecule: C[C@H](C(=O)NCc1ccc2c(c1)OCO2)N(c1cc(Cl)ccc1F)S(=O)(=O)c1ccc(Cl)cc1 [Example 1319]
